Measured values from patent US20260257039A1, “CONVECTION-ENHANCED THERMO-CHEMOTHERAPY CATHETER SYSTEM” (Board of Regents, The University of Texas System, priority 2022, published 2026).

Key:
excised pig brains = tested on: excised pig brains
Method: The volume of solution that leaked into the ventricles was segmented into a separate mask (green).
In recent studies (see e.g. FIG. 62A-FIG. 62C) E. Y. Elenes et al., Journal of Engineering and Science in Medical Diagnostics and Therapy, 2020), the arborizing catheter, comprising six infusion ports, was compared to a reflux-preventing single-port catheter. Infusions of iohexol at a flow rate of 1 μL/min/microneedle were performed, using the arborizing catheter on one hemisphere and a single-port catheter on the contralateral hemisphere of excised pig brains. The volume dispersed (Va) of the contrast agent was quantified for each catheter using standard techniques (G. P. Mazzara, et al., International Journal of Radiation Oncology Biology Physics, 2004; and M. F. Dempsey, et al., American Journal of Neuroradiology, 2005).

ex vivo porcine brains = conditions: contrast agent infusion, literature; cited from earlier work

CC(=O)N(CC(O)CO)c1c(I)c(C(=O)NCC(O)CO)c(I)c(C(=O)NCC(O)CO)c1I (centres unmarked) [iohexol]
Vd, arborizing catheter relative to single-port catheter (excised pig brains): approximately 6 times | voxels with a concentration between 10 and 15% (ex vivo porcine brains): ~40%
